# Assay results reported in PMC8398766, “Do Small Molecules Activate the TrkB Receptor in the Same Manner as BDNF? Limitations of Published TrkB Low Molecular Agonists and Screening for Novel TrkB Orthosteric Agonists” (Pharmaceuticals, 2021).
# “Also recorded” adds a separate entry of the source.
# Key:
# PAMPA = details: 10 μM, 4 h
# TrkB receptor = molecular target: T1, TrkB receptor (Rattus norvegicus, UniProt Q63604); assay: ELFI TrkB phosphorylation, orthosteric agonist mode, SN56 T48 cell line; format: cell-based; details: 0.125–100 μM, 15 min
# T1 construct: host or cells: SN56 T48 cell line
# T1 sequence (Q63604 32-821): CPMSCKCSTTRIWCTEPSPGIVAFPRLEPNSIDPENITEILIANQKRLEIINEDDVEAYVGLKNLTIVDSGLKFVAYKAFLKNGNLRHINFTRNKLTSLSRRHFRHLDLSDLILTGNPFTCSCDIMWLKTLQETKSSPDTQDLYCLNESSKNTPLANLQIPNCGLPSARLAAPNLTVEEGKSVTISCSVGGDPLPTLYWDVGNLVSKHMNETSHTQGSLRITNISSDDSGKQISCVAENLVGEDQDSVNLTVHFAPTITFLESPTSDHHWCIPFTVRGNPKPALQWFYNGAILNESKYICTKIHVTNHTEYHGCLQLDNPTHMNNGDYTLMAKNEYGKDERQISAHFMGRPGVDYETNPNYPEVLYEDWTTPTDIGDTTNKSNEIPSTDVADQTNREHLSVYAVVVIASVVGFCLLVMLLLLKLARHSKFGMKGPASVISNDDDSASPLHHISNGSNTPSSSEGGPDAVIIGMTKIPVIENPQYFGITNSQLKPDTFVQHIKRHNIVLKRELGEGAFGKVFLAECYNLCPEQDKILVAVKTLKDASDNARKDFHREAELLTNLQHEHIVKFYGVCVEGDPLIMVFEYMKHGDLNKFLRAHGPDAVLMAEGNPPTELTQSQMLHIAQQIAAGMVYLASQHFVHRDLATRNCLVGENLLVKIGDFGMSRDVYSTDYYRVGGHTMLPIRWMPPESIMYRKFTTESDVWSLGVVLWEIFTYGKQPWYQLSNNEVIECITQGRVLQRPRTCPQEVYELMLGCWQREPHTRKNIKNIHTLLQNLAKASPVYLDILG
# Description: The SN56 T48 cell line with stable overexpression of the TrkB receptor was purchased from Emory University (Atlanta, GA, USA) and cultivated according to the protocol described in Jang et al., 2010 [12]. The cell lines were cultivated with the following reagents: DMEM High Glucose, fetal bovine serum (FBS), Penicillin-Streptomycin Solution 100×, and Trypsin-EDTA 1×; all were purchased from Biowest, and G418 was from ThermoFisher Scientific. For the ELFI experiments, cells were seeded (8000/well) on a PDL-treated 96-well plate (BioCoat™, Corning Inc., Corning, NY, USA) and 6-well plate (400,000/well) for lysate collection and immunoblot analysis.
# In the orthosteric agonist mode experiments, starved cells (5 h) were treated with compounds (0.125–100 μM; volume, 100 μL/well) or BDNF (0.01–10 nM; volume, 100 μL/well) dissolved in culture medium. In the allosteric modulation mode experiments, starved cells (5 h) were treated with final compound concentrations of 3, 10, and 30 μM; volume, 50 μL/well) in the presence of a rising concentration of BDNF (final concentration in well, 0.15–5 nM; volume, 50 μL/well). Corresponding treatment with DMSO (v/v) was performed for a control. Cells were treated for 15 min in both the orthosteric and allosteric modulation mode experiments.
# The analysis of TrkB receptor activation was performed using the ELFI method adapted from Boltayev et al. (2017) with some modifications. After compound treatment, experiments were stopped by fixing cells with 10% buffered formalin (Kolchem, Lodz, Poland) for 20 min (volume, 100 μL/well). Afterwards, cells were permeabilized with washing buffer (TBS+ 0.1% Tween20) for 15 min, and endogenous peroxidases were quenched by 20 min of incubation with 1% H2O2 dissolved in TBS (each solution: volume, 100 μL/well). Epitopes were blocked with 10% BSA (Biowest) dissolved in washing buffer for 2 h (volume, 100 μL/well) and incubated with anti-pTrkB (Tyr707) primary antibody (Cell Signaling Technology, Danvers, MA, USA) diluted in washing buffer (1:500; overnight at 4 °C; volume, 100 μL/well). After repeated washing, cells were incubated with HRP-linked anti-rabbit antibody (Cell Signaling Technology) for 2 h (1:1000; RT; volume, 100 μL/well) and washed. The cells were then incubated with 100 μL of ImmunoCruz™ Western Blotting Luminol (Santa Cruz Biotechnology, Dallas, TX, USA) for 1 min in the dark, and the signals were measured using a microplate luminometer (VICTOR Light 1420-060, PerkinElmer®, Waltham, MA, USA). For non-specific binding, cells were treated, with the exception of primary antibody.
# A1 = molecular target: T2, A1 (Homo sapiens, UniProt P30542); assay: BioPrint Profile Panel; details: Agonist, Receptor, read-out: % Inhibition of Control Specific Binding
# T2 construct: purchased Eurofins Discovery (Cerep) BioPrint Profile Panel
# Source text: (§1) The BioPrint® Profile Panel service offered by Eurofins Discovery (Poitiers, France) was chosen to perform selectivity analysis.
# ACE = molecular target: T3, ACE (Homo sapiens, UniProt P12821); assay: BioPrint Profile Panel; format: biochemical; details: Non-Kinase Enzyme, read-out: % of specific inhibition
# T3 construct: purchased Eurofins Discovery (Cerep) BioPrint Profile Panel
# Source text: as §1
# ACE-2 = molecular target: T4, ACE-2 (Homo sapiens, UniProt Q9BYF1); assay: BioPrint Profile Panel; format: biochemical; details: Non-Kinase Enzyme, read-out: % of specific inhibition
# T4 construct: purchased Eurofins Discovery (Cerep) BioPrint Profile Panel
# Source text: as §1
# ATPase (Na+/K+) = assay: BioPrint Profile Panel; format: biochemical; details: 10 μM; Non-Kinase Enzyme
# Source text: as §1
# Abl kinase = molecular target: T5, Abl kinase (Homo sapiens, UniProt P00519); assay: BioPrint Profile Panel; format: biochemical; details: read-out: % of specific inhibition
# T5 construct: purchased Eurofins Discovery (Cerep) BioPrint Profile Panel
# Source text: as §1
# BACE-1 = molecular target: T6, BACE-1 (Homo sapiens, UniProt P56817); assay: BioPrint Profile Panel; format: biochemical; details: Non-Kinase Enzyme, read-out: % of specific inhibition
# T6 construct: purchased Eurofins Discovery (Cerep) BioPrint Profile Panel
# T6 sequence (P56817 46-501): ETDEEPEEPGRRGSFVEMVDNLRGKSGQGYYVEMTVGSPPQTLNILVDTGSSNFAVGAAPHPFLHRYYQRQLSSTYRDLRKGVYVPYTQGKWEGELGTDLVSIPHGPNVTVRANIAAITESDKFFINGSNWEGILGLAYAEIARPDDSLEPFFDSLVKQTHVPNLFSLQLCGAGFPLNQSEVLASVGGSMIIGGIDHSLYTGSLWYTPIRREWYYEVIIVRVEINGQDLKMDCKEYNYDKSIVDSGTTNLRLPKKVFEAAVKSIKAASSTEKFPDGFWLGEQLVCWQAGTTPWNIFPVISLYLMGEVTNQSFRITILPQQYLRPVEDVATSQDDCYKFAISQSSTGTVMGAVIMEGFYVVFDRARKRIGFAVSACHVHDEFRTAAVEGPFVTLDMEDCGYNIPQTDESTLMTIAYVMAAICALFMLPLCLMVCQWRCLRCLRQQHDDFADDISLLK
# Source text: as §1
# CDK2 = molecular target: T7, CDK2 (Homo sapiens, UniProt P24941); assay: BioPrint Profile Panel; format: biochemical; details: Kinase, read-out: % of specific inhibition
# T7 construct: purchased Eurofins Discovery (Cerep) BioPrint Profile Panel
# Source text: as §1
# COX1 = molecular target: T8, COX1 (Homo sapiens, UniProt P23219); assay: BioPrint Profile Panel; format: biochemical; details: Non-Kinase Enzyme, read-out: % of specific inhibition
# T8 construct: purchased Eurofins Discovery (Cerep) BioPrint Profile Panel
# Source text: as §1
# COX2 = molecular target: T9, COX2 (Homo sapiens, UniProt P35354); assay: BioPrint Profile Panel; format: biochemical; details: Non-Kinase Enzyme
# T9 construct: purchased Eurofins Discovery (Cerep) BioPrint Profile Panel
# T9 sequence (P35354 18-604): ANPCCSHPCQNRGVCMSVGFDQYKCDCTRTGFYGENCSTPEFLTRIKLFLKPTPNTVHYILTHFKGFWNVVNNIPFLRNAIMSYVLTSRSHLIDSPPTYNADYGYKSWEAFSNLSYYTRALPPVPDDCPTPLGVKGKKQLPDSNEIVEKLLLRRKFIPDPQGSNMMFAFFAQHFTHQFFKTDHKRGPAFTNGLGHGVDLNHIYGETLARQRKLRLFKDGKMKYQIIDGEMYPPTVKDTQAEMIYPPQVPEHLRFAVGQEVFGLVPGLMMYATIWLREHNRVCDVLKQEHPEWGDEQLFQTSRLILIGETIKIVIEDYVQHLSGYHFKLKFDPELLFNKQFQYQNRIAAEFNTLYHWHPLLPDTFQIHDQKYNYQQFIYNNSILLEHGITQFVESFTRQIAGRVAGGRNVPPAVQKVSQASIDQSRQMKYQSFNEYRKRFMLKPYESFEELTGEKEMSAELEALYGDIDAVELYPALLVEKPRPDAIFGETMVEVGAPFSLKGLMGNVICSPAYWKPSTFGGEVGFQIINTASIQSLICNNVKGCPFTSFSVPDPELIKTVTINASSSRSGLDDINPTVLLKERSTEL
# Source text: as §1
# ERK2 = molecular target: T10, ERK2 (Homo sapiens, UniProt P28482); assay: BioPrint Profile Panel; format: biochemical; details: Kinase, read-out: % of specific inhibition
# T10 construct: purchased Eurofins Discovery (Cerep) BioPrint Profile Panel
# T10 sequence (P28482 whole entry): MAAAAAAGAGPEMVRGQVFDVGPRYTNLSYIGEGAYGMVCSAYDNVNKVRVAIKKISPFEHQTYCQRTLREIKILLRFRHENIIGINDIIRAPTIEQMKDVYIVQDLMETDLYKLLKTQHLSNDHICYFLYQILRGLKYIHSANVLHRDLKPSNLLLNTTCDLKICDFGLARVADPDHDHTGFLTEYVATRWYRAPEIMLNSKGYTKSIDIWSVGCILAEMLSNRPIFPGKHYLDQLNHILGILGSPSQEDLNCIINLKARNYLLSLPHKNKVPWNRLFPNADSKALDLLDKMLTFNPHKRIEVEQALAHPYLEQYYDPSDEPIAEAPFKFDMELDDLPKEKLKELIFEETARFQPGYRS
# Source text: as §1
# HIV-1 protease = assay: BioPrint Profile Panel; format: biochemical; details: 10 μM; Non-Kinase Enzyme
# Source text: as §1
# Lyn A kinase = molecular target: T11, Lyn A kinase (Homo sapiens, UniProt P07948); assay: BioPrint Profile Panel; format: biochemical
# T11 construct: purchased Eurofins Discovery (Cerep) BioPrint Profile Panel
# T11 sequence (P07948 whole entry): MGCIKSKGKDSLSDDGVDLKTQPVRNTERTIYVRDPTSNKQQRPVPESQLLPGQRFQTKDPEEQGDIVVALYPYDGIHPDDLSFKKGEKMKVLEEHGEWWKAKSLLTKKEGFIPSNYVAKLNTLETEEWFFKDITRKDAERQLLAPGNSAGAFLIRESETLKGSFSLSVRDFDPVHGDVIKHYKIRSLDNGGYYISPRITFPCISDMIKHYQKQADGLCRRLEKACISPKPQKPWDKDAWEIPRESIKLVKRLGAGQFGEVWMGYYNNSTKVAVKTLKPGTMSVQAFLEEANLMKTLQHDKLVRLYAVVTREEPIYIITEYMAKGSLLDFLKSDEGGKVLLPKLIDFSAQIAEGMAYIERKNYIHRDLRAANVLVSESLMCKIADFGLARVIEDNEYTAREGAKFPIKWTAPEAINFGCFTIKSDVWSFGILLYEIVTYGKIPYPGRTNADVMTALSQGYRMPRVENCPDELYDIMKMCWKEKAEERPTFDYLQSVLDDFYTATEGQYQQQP
# Source text: as §1
# MMP-1 = molecular target: T12, MMP-1 (Homo sapiens, UniProt P03956); assay: BioPrint Profile Panel; format: biochemical; details: Non-Kinase Enzyme, read-out: % of specific inhibition
# T12 construct: purchased Eurofins Discovery (Cerep) BioPrint Profile Panel
# Source text: as §1
# MMP-9 = molecular target: T13, MMP-9 (Homo sapiens, UniProt P14780); assay: BioPrint Profile Panel; format: biochemical; details: Non-Kinase Enzyme, read-out: % Inhibition of Control Specific Binding
# T13 construct: purchased Eurofins Discovery (Cerep) BioPrint Profile Panel
# Source text: as §1
# PDE3B = molecular target: T14, PDE3B (Homo sapiens, UniProt Q13370); assay: BioPrint Profile Panel; format: biochemical; details: Non-Kinase Enzyme, read-out: % of specific inhibition
# T14 construct: purchased Eurofins Discovery (Cerep) BioPrint Profile Panel
# Source text: as §1
# PDE4D2 = molecular target: T15, PDE4D2 (Homo sapiens, UniProt Q08499); assay: BioPrint Profile Panel; format: biochemical; details: Non-Kinase Enzyme, read-out: % of specific inhibition
# T15 construct: purchased Eurofins Discovery (Cerep) BioPrint Profile Panel
# Source text: as §1
# PDE5 = molecular target: T16, PDE5 (Homo sapiens, UniProt O76074); assay: BioPrint Profile Panel; format: biochemical; details: Non-Kinase Enzyme, read-out: % of specific inhibition
# T16 construct: purchased Eurofins Discovery (Cerep) BioPrint Profile Panel
# Source text: as §1
# PDE6 = assay: BioPrint Profile Panel; format: biochemical; details: 10 μM; Non-Kinase Enzyme
# Source text: as §1
# [1] = molecular target: T17, Xanthine oxidase/ superoxide O2-scavenging (Bos taurus, UniProt P80457); assay: BioPrint Profile Panel; format: biochemical; details: Non-Kinase Enzyme
# T17 construct: purchased Eurofins Discovery (Cerep) BioPrint Profile Panel
# T17 sequence (P80457 whole entry): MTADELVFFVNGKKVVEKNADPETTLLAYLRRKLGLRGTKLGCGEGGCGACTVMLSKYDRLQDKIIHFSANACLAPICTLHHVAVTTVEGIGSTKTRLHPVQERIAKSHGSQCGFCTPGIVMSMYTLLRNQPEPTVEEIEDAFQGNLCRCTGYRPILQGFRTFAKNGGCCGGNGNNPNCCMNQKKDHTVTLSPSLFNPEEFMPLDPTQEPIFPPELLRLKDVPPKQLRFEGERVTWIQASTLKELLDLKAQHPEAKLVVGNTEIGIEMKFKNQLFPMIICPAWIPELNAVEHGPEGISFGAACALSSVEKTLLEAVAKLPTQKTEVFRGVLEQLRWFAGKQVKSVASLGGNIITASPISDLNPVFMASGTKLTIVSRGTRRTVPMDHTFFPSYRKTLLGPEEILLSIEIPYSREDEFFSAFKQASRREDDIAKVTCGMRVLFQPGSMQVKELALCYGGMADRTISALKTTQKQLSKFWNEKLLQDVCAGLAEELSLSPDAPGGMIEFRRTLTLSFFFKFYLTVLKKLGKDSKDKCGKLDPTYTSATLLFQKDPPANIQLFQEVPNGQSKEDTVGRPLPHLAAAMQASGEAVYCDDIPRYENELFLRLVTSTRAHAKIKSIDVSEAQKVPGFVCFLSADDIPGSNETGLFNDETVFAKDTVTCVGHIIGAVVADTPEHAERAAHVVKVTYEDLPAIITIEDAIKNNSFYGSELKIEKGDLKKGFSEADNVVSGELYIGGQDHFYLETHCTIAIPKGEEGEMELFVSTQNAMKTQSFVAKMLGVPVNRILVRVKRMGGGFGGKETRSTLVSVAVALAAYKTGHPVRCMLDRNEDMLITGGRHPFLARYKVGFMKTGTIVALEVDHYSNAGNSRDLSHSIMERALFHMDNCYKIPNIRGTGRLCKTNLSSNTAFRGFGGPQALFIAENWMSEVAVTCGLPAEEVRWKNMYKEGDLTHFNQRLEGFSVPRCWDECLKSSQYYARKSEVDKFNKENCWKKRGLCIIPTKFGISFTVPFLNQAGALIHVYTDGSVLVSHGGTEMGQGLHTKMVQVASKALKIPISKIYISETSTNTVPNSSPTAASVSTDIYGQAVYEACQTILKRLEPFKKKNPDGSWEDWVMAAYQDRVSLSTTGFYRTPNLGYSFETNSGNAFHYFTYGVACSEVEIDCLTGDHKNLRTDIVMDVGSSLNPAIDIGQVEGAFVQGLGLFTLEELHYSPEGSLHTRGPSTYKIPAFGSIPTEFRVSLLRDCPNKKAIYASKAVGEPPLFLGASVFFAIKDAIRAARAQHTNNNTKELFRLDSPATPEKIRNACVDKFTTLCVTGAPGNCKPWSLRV
# Source text: as §1
# ZAP70 kinase = molecular target: T18, ZAP70 kinase (Homo sapiens, UniProt P43403); assay: BioPrint Profile Panel; format: biochemical; details: read-out: % of specific inhibition
# T18 construct: purchased Eurofins Discovery (Cerep) BioPrint Profile Panel
# T18 sequence (P43403 whole entry): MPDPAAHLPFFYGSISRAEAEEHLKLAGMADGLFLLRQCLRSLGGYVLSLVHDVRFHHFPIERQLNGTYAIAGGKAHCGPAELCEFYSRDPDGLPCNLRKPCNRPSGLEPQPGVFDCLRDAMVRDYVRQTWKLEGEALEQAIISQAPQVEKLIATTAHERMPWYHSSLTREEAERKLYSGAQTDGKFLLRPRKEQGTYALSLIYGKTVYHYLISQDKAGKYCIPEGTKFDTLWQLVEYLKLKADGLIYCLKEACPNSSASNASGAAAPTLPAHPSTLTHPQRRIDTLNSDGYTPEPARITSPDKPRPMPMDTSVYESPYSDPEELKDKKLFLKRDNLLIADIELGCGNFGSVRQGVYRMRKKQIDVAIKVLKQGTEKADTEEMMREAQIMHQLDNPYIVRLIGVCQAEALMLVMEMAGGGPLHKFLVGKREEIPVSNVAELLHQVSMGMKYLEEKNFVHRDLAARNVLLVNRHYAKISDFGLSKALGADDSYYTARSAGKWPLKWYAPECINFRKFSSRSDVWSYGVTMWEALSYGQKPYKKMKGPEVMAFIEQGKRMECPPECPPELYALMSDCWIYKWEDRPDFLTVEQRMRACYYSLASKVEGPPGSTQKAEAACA
# Source text: as §1
# caspase-3 = molecular target: T19, caspase-3 (Homo sapiens, UniProt P42574); assay: BioPrint Profile Panel; format: biochemical; details: Non-Kinase Enzyme, read-out: % of specific inhibition
# T19 construct: purchased Eurofins Discovery (Cerep) BioPrint Profile Panel
# Source text: as §1
# inducible NOS = assay: BioPrint Profile Panel; format: biochemical; details: 10 μM; Non-Kinase Enzyme
# Source text: as §1
# p38α kinase = molecular target: T20, p38α kinase (Homo sapiens, UniProt Q16539); assay: BioPrint Profile Panel; format: biochemical; details: read-out: % of specific inhibition
# T20 construct: purchased Eurofins Discovery (Cerep) BioPrint Profile Panel
# T20 sequence (Q16539 whole entry): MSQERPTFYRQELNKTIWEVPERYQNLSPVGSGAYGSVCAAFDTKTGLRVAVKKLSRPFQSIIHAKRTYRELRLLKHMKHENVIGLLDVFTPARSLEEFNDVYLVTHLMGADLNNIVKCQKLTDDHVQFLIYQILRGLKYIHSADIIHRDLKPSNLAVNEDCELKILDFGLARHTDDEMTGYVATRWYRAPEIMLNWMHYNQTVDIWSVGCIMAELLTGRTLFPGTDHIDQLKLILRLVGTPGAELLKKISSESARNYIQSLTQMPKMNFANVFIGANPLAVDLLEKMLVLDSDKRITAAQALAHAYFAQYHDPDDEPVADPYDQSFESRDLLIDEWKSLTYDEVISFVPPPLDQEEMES
# Source text: as §1
# in vitro [2] = details: PAMPA, pH 7.4
# in vitro [3] = details: human, microsomes
# [4] = read-out: % Inhibition of Control Specific Binding
structure (smiles),measurement,setting,value
C=CC(C)(C)c1[nH]c2ccccc2c1C1=C(O)C(=O)C(c2c[nH]c3c(CC=C(C)C)cccc23)=C(O)C1=O [DMAQ-B1],PAMPA,PAMPA,6.93 10^−6·cm/s
"O=c1cc(-c2ccccc2)oc2c(O)c(O)ccc12 [7,8-DHF, 7,8-dihydroxyflavone]",Orthosteric activity (induction of TrkB phosphorylation),TrkB receptor,failed to show any activity; also recorded: does not occur
same,inhibition at 10 µM,A1,99%
same,inhibition at 10 µM,ACE,5%
same,inhibition at 10 µM,ACE-2,-8%
same,% of specific inhibition,ATPase (Na+/K+),-2%
same,inhibition at 10 µM,Abl kinase,25%
same,inhibition at 10 µM,BACE-1,15%
same,inhibition at 10 µM,CDK2,0%
same,inhibition at 10 µM,COX1,49%
same,% Inhibition of Control Specific Binding,COX2; 10 μM,81.6%
same,inhibition at 10 µM,COX2; [4],82%
same,inhibition at 10 µM,ERK2,-23%
same,% of specific inhibition,HIV-1 protease,1%
same,% Inhibition of Control Specific Binding,Lyn A kinase; 10 μM,52.6%
same,inhibition at 10 µM,Lyn A kinase; [4],53%
same,inhibition at 10 µM,MMP-1,10%
same,inhibition at 10 µM,MMP-9,72%
same,inhibition at 10 µM,PDE3B,11%
same,inhibition at 10 µM,PDE4D2,38%
same,inhibition at 10 µM,PDE5,48%
same,% of specific inhibition,PDE6,30%
same,% Inhibition of Control Specific Binding,[1]; 10 μM,91.5%
same,inhibition at 10 µM,[1]; [4],92%
same,inhibition at 10 µM,ZAP70 kinase,4%
same,inhibition at 10 µM,caspase-3,1%
same,% of specific inhibition,inducible NOS,3%
same,inhibition at 10 µM,p38α kinase,-50%
same,"Papp at 4 h, 10 μM",in vitro [2],15.8 ×10⁻⁶ cm/s
same,microsomal CLint at 1 μM,in vitro [3],52.2 µL/min/mg
